Among the test systems are Pseudomonas aeruginosa; Escherichia coli B; Staphylococcus aureus; Bacillus subtilis 168; Listeria innocua; Micrococcus luteus A270; Escherichia coli.
Holding throughout (assay): ≥ marks a high value that may be exact or a test limit, other limits are often not marked, values filed in µg/mL are converted to µM
Assay [1] concerns Candida albicans ATCC 10231.
Assay [2] has as its system Bacillus subtilis ATCC 23857.
The subject of assay [3] is Escherichia coli ATCC 25922.
The test system of assay [4] is Candida albicans F7-39/IDE99.
Assay [5] has as its system Pseudomonas aeruginosa PAO1.
For assay [6], the system named is Klebsiella pneumoniae ATCC 13883.
Assay [7] deals with Staphylococcus aureus USA 300.
Assay [8] deals with Staphylococcus aureus ATCC 25923.
Assay [9] has as its system Staphylococcus epidermidis ATCC 12228.
For assay [10], the system named is Staphylococcus aureus ATCC BAA-1556.
Assay [11] has as its system Klebsiella pneumoniae ATCC 700603.
In assay [12] the test system is Pseudomonas aeruginosa ATCC 9027.

The structures appear in SMILES notation. Converted amounts (≈) assume the structure as drawn.

With `N=C(N)NCCC[C@H](NC(=O)[C@H](CCCNC(=N)N)NC(=O)[C@H](Cc1ccccc1)NC(=O)[C@H](Cc1ccccc1)NC(=O)[C@H](CCCNC(=N)N)NC(=O)[C@H](CCCNC(=N)N)NC(=O)[C@H](Cc1ccccc1)NC(=O)[C@H](Cc1ccccc1)NC(=O)[C@H](CCCNC(=N)N)NC(=O)[C@H](CCCNC(=N)N)NC(=O)[C@H](Cc1ccccc1)NC(=O)[C@H](Cc1ccccc1)NC(=O)[C@H](CCCNC(=N)N)NC(=O)[C@H](CCCNC(=N)N)NC(=O)[C@H](Cc1ccccc1)NC(=O)[C@@H](N)Cc1ccccc1)C(N)=O` [FFRRFFRRFFRRFFRR], the MIC is more than 20.5 µM in assay [1] and 8.18 µM (≈ 20 µg/mL) in [2].

For `CC[C@H](C)[C@H](NC(=O)CN)C(=O)N[C@H](C(=O)N[C@@H](C)C(=O)NCC(=O)N[C@H](C(=O)N[C@H](C(=O)N[C@H](C(=O)N[C@@H](CCCCN)C(=O)N[C@H](C(=O)N[C@@H](C)C(=O)N[C@@H](CCCCN)C(N)=O)[C@@H](C)CC)[C@@H](C)CC)[C@@H](C)CC)[C@@H](C)CC)[C@@H](C)CC` [GIIAGIIIKIAK], the results for the minimum inhibitory concentration (MIC) in [3] and in assay [2] were more than 128 µM and not below 128 µM, respectively.

With `CC[C@H](C)[C@H](NC(=O)[C@H](Cc1cnc[nH]1)NC(=O)[C@H](CCCCN)NC(=O)[C@H](CC(C)C)NC(=O)[C@H](CC(C)C)NC(=O)[C@@H](NC(=O)[C@H](CCSC)NC(=O)[C@H](Cc1c[nH]c2ccccc12)NC(=O)[C@H](CCCCN)NC(=O)CN)[C@@H](C)O)C(=O)N[C@@H](CC(C)C)C(=O)N[C@@H](CCCCN)C(N)=O` [GKWMTLLKHILK], the MIC against Pseudomonas aeruginosa came to 38.3 µM (≈ 56.2 µg/mL); against Escherichia coli B, 2.7 µM (≈ 3.96 µg/mL); in the assay on Staphylococcus aureus, 5.3 µM (≈ 7.77 µg/mL); with Bacillus subtilis 168, 1.3 µM (≈ 1.91 µg/mL); in assay [4], 7 µM (≈ 10.3 µg/mL).

In the case of `CC(C)C[C@H](NC(=O)[C@H](CCCCN)NC(=O)CNC(=O)[C@H](CC(C)C)NC(=O)[C@H](CC(C)C)NC(=O)[C@H](CC(C)C)NC(=O)[C@H](CO)NC(=O)[C@H](CC(C)C)NC(=O)[C@H](CC(C)C)NC(=O)[C@H](CC(C)C)NC(=O)[C@H](CO)NC(=O)[C@H](CC(C)C)NC(=O)CN)C(N)=O` [GLSLLLSLLLGKL], the MIC in [5] is more than 25 µM; in assay [6], 25 µM (≈ 33.5 µg/mL); in assay [3] it was more than 25 µM; in [7], 6.2 µM (≈ 8.3 µg/mL).

Turning to `CC[C@H](C)[C@H](N)C(=O)N[C@@H](CC(C)C)C(=O)NCC(=O)N[C@H](C(=O)N[C@H](C(=O)N[C@@H](CC(C)C)C(=O)NCC(=O)N[C@@H](CC(C)C)C(=O)N[C@@H](CC(C)C)C(=O)N[C@@H](CCCCN)C(=O)N[C@@H](CC(N)=O)C(=O)N[C@@H](CC(C)C)C(N)=O)[C@@H](C)CC)[C@@H](C)O` [ILGTILGLLKNL], the MIC turned out to be 32 µM (≈ 40.5 µg/mL) in assay [3], 8 µM (≈ 10.1 µg/mL) in [8], 4 µM (≈ 5.07 µg/mL) in [2] and 4 µM (≈ 5.07 µg/mL) in assay [9].

For `CC[C@H](C)[C@H](N)C(=O)N[C@@H](CC(C)C)C(=O)NCC(=O)N[C@H](C(=O)N[C@H](C(=O)N[C@@H](CC(C)C)C(=O)NCC(=O)N[C@@H](CC(C)C)C(=O)N[C@@H](CC(C)C)C(=O)N[C@@H](CCCCN)C(=O)N[C@H](C(=O)N[C@@H](CC(C)C)C(N)=O)[C@@H](C)O)[C@@H](C)CC)[C@@H](C)O` [ILGTILGLLKTL], the MIC in assay [3] amounted to 64 µM (≈ 80.2 µg/mL); in [8], 8 µM (≈ 10 µg/mL); in assay [2] it was 4 µM (≈ 5.01 µg/mL); in assay [9], 4 µM (≈ 5.01 µg/mL).

For the compound `CC(C)C[C@H](NC(=O)[C@H](CC(C)C)NC(=O)[C@H](Cc1c[nH]c2ccccc12)NC(=O)[C@H](CCCCN)NC(=O)[C@H](CC(C)C)NC(=O)[C@H](CC(C)C)NC(=O)[C@H](CCCCN)NC(=O)[C@@H](N)CCCCN)C(=O)N[C@@H](CCCCN)C(N)=O` [KKLLKWLLK], in assay [10], the MIC was not below 100 µM.

With `CC(C)C[C@H](NC(=O)[C@H](CC(C)C)NC(=O)[C@H](CC(C)C)NC(=O)[C@H](CC(C)C)NC(=O)[C@H](CCCCN)NC(=O)[C@H](CC(C)C)NC(=O)[C@H](CC(C)C)NC(=O)[C@H](CC(C)C)NC(=O)[C@@H](N)CCCCN)C(N)=O` [KLLLKLLLL], in [10], the MIC was not below 100 µM.

As for `CC(C)C[C@H](NC(=O)[C@H](CC(C)C)NC(=O)[C@H](CO)NC(=O)[C@H](Cc1cnc[nH]1)NC(=O)[C@H](CO)NC(=O)[C@H](CC(C)C)NC(=O)[C@H](CC(C)C)NC(=O)[C@@H](N)CCCCN)C(=O)O` [KLLSHSLL], the results for the MIC with Listeria innocua, against Micrococcus luteus A270 and against Escherichia coli were not below 34 µM, not below 34 µM and 68 µM (≈ 61.9 µg/mL), respectively.

For the compound `CC[C@H](C)[C@H](NC(=O)[C@H](Cc1c[nH]c2ccccc12)NC(=O)[C@H](CCCN=C(N)N)NC(=O)[C@H](CCCN=C(N)N)NC(=O)[C@H](Cc1c[nH]c2ccccc12)NC(=O)[C@@H](N)CCCCN)C(=O)N[C@@H](CCCN=C(N)N)C(=O)N[C@@H](Cc1c[nH]c2ccccc12)C(N)=O` [KWRRWIRW], the MIC in assay [10] is 12.5 µM (≈ 16.1 µg/mL).

In assay [10], `CC(C)C[C@H](NC(=O)[C@H](CCCCN)NC(=O)[C@H](CCCCN)NC(=O)[C@H](CC(C)C)NC(=O)[C@H](CC(C)C)NC(=O)[C@H](CC(C)C)NC(=O)[C@H](CC(C)C)NC(=O)[C@H](CC(C)C)NC(=O)[C@@H](N)CC(C)C)C(N)=O` [LLLLLLKKL] displayed an MIC not below 100 µM.

For the compound `CC(C)C[C@H](NC(=O)[C@H](CC(C)C)NC(=O)[C@H](CCCCN)NC(=O)[C@H](CC(C)C)NC(=O)[C@H](CC(C)C)NC(=O)[C@H](CC(C)C)NC(=O)[C@H](CC(C)C)NC(=O)[C@H](CC(C)C)NC(=O)[C@@H](N)CC(C)C)C(N)=O` [LLLLLLKLL], the MIC in [10] is not below 100 µM.

Regarding `CC[C@H](C)[C@H](NC(=O)[C@H](CCCCN)NC(=O)[C@H](CCCCN)NC(=O)[C@H](C)NC(=O)[C@@H](NC(=O)[C@H](C)NC(=O)[C@H](CC(C)C)NC(=O)[C@H](CC(C)C)NC(=O)[C@H](C)NC(=O)[C@H](CCCCN)NC(=O)[C@H](CC(C)C)NC(=O)[C@H](CC(N)=O)NC(=O)[C@@H](N)CC(C)C)C(C)C)C(N)=O` [LNLKALLAVAKKI], the MIC is 16 µM (≈ 22.3 µg/mL) in assay [3]; 64 µM (≈ 89.2 µg/mL) in assay [8]; 64 µM (≈ 89.2 µg/mL) in assay [11]; 16 µM (≈ 22.3 µg/mL) in [2]; 32 µM (≈ 44.6 µg/mL) in assay [12].

As to `CC(C)C[C@H](NC(=O)[C@H](Cc1c[nH]c2ccccc12)NC(=O)[C@H](CCCN=C(N)N)NC(=O)[C@H](CC(C)C)NC(=O)[C@H](Cc1c[nH]c2ccccc12)NC(=O)[C@H](Cc1c[nH]c2ccccc12)NC(=O)[C@H](CC(C)C)NC(=O)[C@H](Cc1c[nH]c2ccccc12)NC(=O)[C@@H](N)CC(C)C)C(N)=O` [LWLWWLRWL], the MIC in [10] is 3.12 µM (≈ 4.28 µg/mL).

Consider `CC(C)C[C@H](NC(=O)[C@H](Cc1c[nH]c2ccccc12)NC(=O)[C@H](CCCN=C(N)N)NC(=O)[C@H](CC(C)C)NC(=O)[C@H](Cc1c[nH]c2ccccc12)NC(=O)[C@H](Cc1c[nH]c2ccccc12)NC(=O)[C@@H](N)CC(C)C)C(N)=O` [LWWLRWL], for which, in assay [10], the MIC worked out at 12.5 µM (≈ 13.4 µg/mL).

For `CC[C@H](C)[C@H](NC(=O)[C@H](CCCCN)NC(=O)[C@H](CCCCN)NC(=O)[C@H](Cc1c[nH]c2ccccc12)NC(=O)[C@H](CC(N)=O)NC(=O)[C@@H](N)C(C)C)C(=O)N[C@@H](CC(C)C)C(=O)NCC(=O)N[C@@H](CCCCN)C(=O)N[C@H](C(=O)N[C@H](C(=O)N[C@@H](CCCCN)C(=O)N[C@H](C(=O)N[C@@H](C)C(=O)N[C@@H](CCCCN)C(N)=O)C(C)C)[C@@H](C)CC)[C@@H](C)CC` [VNWKKILGKIIKVAK], the MIC against Pseudomonas aeruginosa was determined as 14.4 µM (≈ 25 µg/mL); in the assay with Escherichia coli B, 1.4 µM (≈ 2.43 µg/mL); in the assay with Staphylococcus aureus, 9 µM (≈ 15.6 µg/mL); in the assay on Bacillus subtilis 168, 0.7 µM (≈ 1.22 µg/mL); in assay [4] it was 10 µM (≈ 17.4 µg/mL).

Turning to `CC(C)C[C@H](NC(=O)[C@H](CO)NC(=O)[C@H](C)NC(=O)[C@H](Cc1cnc[nH]1)NC(=O)[C@@H](NC(=O)[C@H](C)NC(=O)[C@@H]1CCCN1C(=O)[C@@H](NC(=O)[C@H](Cc1ccccc1)NC(=O)[C@H](CC(=O)O)NC(=O)[C@H](CO)NC(=O)[C@@H]1CCCN1C(=O)[C@H](CC(C)C)NC(=O)[C@H](Cc1cnc[nH]1)NC(=O)[C@H](CO)NC(=O)[C@H](C)NC(=O)[C@H](CC(C)C)NC(=O)[C@@H](NC(=O)[C@@H](N)C(C)C)[C@@H](C)O)[C@@H](C)O)C(C)C)C(=O)N[C@@H](CC(=O)O)C(=O)N[C@@H](CCCCN)C(=O)N[C@@H](Cc1ccccc1)C(=O)O` [VTLASHLPSDFTPAVHASLDKF], the MIC was not below 53 µM with Listeria innocua, not below 53 µM with Micrococcus luteus A270 and 26 µM (≈ 61.2 µg/mL) in the assay with Escherichia coli.

With `CC(C)C[C@H](NC(=O)[C@H](Cc1c[nH]c2ccccc12)NC(=O)[C@H](CCCN=C(N)N)NC(=O)[C@H](CC(C)C)NC(=O)[C@H](Cc1c[nH]c2ccccc12)NC(=O)[C@H](Cc1c[nH]c2ccccc12)NC(=O)[C@H](CC(C)C)NC(=O)[C@@H](N)Cc1c[nH]c2ccccc12)C(N)=O` [WLWWLRWL], in [10], the MIC came to 6.25 µM (≈ 7.86 µg/mL).

What is called MIC is the smallest concentration in the dilution series that meets the test's criterion for growth inhibition.

For the origin of these results see DBAASP.
